Experimental data taken from ChEMBL document CHEMBL3045306, “Ultrasound-promoted synthesis, biological evaluation and molecular docking of novel 7-(2-chloroquinolin-4-yloxy)-4-methyl-2H-chromen-2-one derivatives” (2013).
Values after ≈ are worked out from the molar mass of the structure shown.

Experiments:
Type in all cases: functional
Escherichia coli = experiment: Antibacterial activity against Escherichia coli assessed as growth inhibition
Staphylococcus aureus = experiment: Antibacterial activity against Staphylococcus aureus assessed as growth inhibition
Meloidogyne = experiment: Nematicidal activity against Meloidogyne litoralis assessed as growth inhibition
Pseudomonas aeruginosa = experiment: Antibacterial activity against Pseudomonas aeruginosa assessed as growth inhibition
Bacillus subtilis = experiment: Antibacterial activity against Bacillus subtilis assessed as growth inhibition
[1] = test system: Radical scavenging activity; experiment: Antioxidant activity assessed as inhibition of DPPH radical formation at 1000 ug after 30 mis UV-Vis spectrophotometric analysis
[2] = test system: Radical scavenging activity; experiment: Antioxidant activity assessed as inhibition of DPPH radical formation at 100 ug after 30 mis UV-Vis spectrophotometric analysis
[3] = test system: Radical scavenging activity; experiment: Antioxidant activity assessed as inhibition of DPPH radical formation at 500 ug after 30 mis UV-Vis spectrophotometric analysis
[4] = test system: Radical scavenging activity; experiment: Antioxidant activity assessed as inhibition of DPPH radical formation at 50 ug after 30 mis UV-Vis spectrophotometric analysis

MIC (Escherichia coli) | MIC (Staphylococcus aureus) | MIC (Pseudomonas aeruginosa) | SMILES | MIC (Meloidogyne) | MIC (Bacillus subtilis) | inhibition [1] | inhibition [2] | inhibition [3] | inhibition [4]
6.25 µg/mL (≈ 16.1 µM) | 50 µg/mL (≈ 129 µM) | 6.25 µg/mL (≈ 16.1 µM) | Cc1cc(=O)oc2cc(Oc3cc(Cl)nc4c3ccc3ccccc34)ccc12 | – | – | 67% | 15% | 40% | 14%
12.5 µg/mL (≈ 35.5 µM) | 12.5 µg/mL (≈ 35.5 µM) | 100 µg/mL (≈ 284 µM) | Cc1ccc2nc(Cl)cc(Oc3ccc4c(C)cc(=O)oc4c3)c2c1 | – | – | 69% | 20% | 57% | 19%
– | – | – | Cc1cc(C(C)(C)C)c(O)c(C(C)(C)C)c1 | – | – | 98% | 94% | 96% | 93%
6.25 µg/mL (≈ 17 µM) | – | 6.25 µg/mL (≈ 17 µM) | COc1cccc2c(Oc3ccc4c(C)cc(=O)oc4c3)cc(Cl)nc12 | – | 100 µg/mL (≈ 272 µM) | 69% | 11% | 38% | 8%
6.25 µg/mL (≈ 17.8 µM) | – | – | Cc1cc(=O)oc2cc(Oc3cc(Cl)nc4c(C)cccc34)ccc12 | 100 µg/mL (≈ 284 µM) | – | 68% | 14% | 45% | 12%
– | – | 50 µg/mL (≈ 120 µM) | Cc1cc(=O)oc2cc(Oc3cc(Cl)nc4ccc(Br)cc34)ccc12 | 6.25 µg/mL (≈ 15 µM) | – | 76% | 26% | 54% | 24%
100 µg/mL (≈ 296 µM) | 50 µg/mL (≈ 148 µM) | 12.5 µg/mL (≈ 37 µM) | Cc1cc(=O)oc2cc(Oc3cc(Cl)nc4ccccc34)ccc12 | 100 µg/mL (≈ 296 µM) | – | 78% | 23% | 53% | 21%
– | – | 12.5 µg/mL (≈ 35.5 µM) | Cc1ccc2c(Oc3ccc4c(C)cc(=O)oc4c3)cc(Cl)nc2c1 | – | – | 65% | 11% | 35% | 10%

SMILES | MIC (Escherichia coli) | MIC (Staphylococcus aureus) | MIC (Pseudomonas aeruginosa) | MIC (Meloidogyne) | MIC (Bacillus subtilis) | inhibition [1] | inhibition [2] | inhibition [3] | inhibition [4]
CN[C@@H]1[C@H](O[C@H]2[C@H](O[C@H]3[C@H](O)[C@@H](O)[C@H](N=C(N)N)[C@@H](O)[C@@H]3N=C(N)N)O[C@@H](C)[C@]2(O)C=O)O[C@@H](CO)[C@H](O)[C@H]1O [STREPTOMYCIN] | 6.25 µg/mL (≈ 10.7 µM) | 25 µg/mL (≈ 43 µM) | 12.5 µg/mL (≈ 21.5 µM) | 6.25 µg/mL (≈ 10.7 µM) | 12.5 µg/mL (≈ 21.5 µM) | – | – | – | –
